Laboratory results from patent publication US4962119A, “Triazole derivatives of fenamates as antiinflammatory agents” (Warner-Lambert Company, priority 1989, dated 1990).

Tested on: 5-Lipoxygenase
Test: ARBL whole cell 5-lipoxygenase assay (inhibition of LTB4 formation in RBL-1 cells, RIA)
Assay type: cell-based, rat
Settings: calcium ionophore A23187 (5 μM)
Excerpt: ARBL/ARBC Whole Cell 5-Lipoxygenase and Cyclcoxygenase Assays
Cells are harvested by centrifugation.

`FC(F)(F)c1cccc(Nc2ccccc2-c2n[nH]c(=S)[nH]2)c1` [Example 4, 5-[2-[(3-trifluoromethylphenyl)amino]phenyl]-2,4-dihydro-3H-1,2,4-triazole-3-thione] was tested, and the “ARBL: % inhibition of LTB4 at 16 μM” value was “N (Less than 40% inhibiton)”.
